According to ChEMBL document CHEMBL2434887, “Synthesis and biological evaluation of a new series of N-ylides as protein farnesyltransferase inhibitors” (Bioorg Med Chem Lett, 2013):

biological target: T1, Protein farnesyltransferase (Homo sapiens, UniProt P49354+P49356); assay: Inhibition of recombinant human farnesyltransferase using Dansyl-GCVLS as substrate at 100 uM measured for 15 mins by fluorimetric analysis relative to control; format: protein-complex assay

Row | SMILES | inhibition [%]
1 | CCOC(=O)/C(C#N)=C/[C-](C(=O)c1cc(OC)c(OC)c(OC)c1)[n+]1cc(C)cc(C)c1 | 90
2 | CCOC(=O)/C(C#N)=C/[C-](C(=O)c1ccc(C#N)cc1)[n+]1ccc(N(C)C)cc1 | 69
3 | CCOC(=O)/C(C#N)=C/[C-](C(=O)c1cc(OC)c(OC)c(OC)c1)[n+]1ccc(N(C)C)cc1 | 73
4 | CCOC(=O)/C(C#N)=C/[C-](C(=O)c1ccc(Cl)cc1)[n+]1ccc(N(C)C)cc1 | 100
5 | CCOC(=O)/C(C#N)=C/[C-](C(=O)c1ccc(OC)cc1)[n+]1ccc(N(C)C)cc1 | 64
6 | Cc1cc[n+]([C-](C=C(C#N)C#N)C(=O)c2ccccc2)cc1 | 29
7 | CCOC(=O)/C(C#N)=C/[C-](C(=O)c1ccc(OC)cc1)[n+]1cc(C)cc(C)c1 | 49
8 | CCOC(=O)/C(C#N)=C/[C-](C(=O)c1ccc(OC)cc1)[n+]1ccc(OC)cc1 | 51
9 | CCOC(=O)/C(C#N)=C/[C-](C(=O)c1ccc(F)cc1)[n+]1ccc(N(C)C)cc1 | 64
10 | CN(C)c1cc[n+]([C-](C=C(C#N)C#N)C(=O)c2ccccc2)cc1 | 79
11 | CCOC(=O)/C(C#N)=C/[C-](C(=O)c1ccc2c(c1)NC(=O)CO2)[n+]1ccc(N(C)C)cc1 | 62
12 | CCOC(=O)/C(C#N)=C/[C-](C(=O)c1ccccc1)[n+]1ccc(C)cc1 | 45
13 | CCOC(=O)/C(C#N)=C/[C-](C(=O)c1ccc(C)cc1)[n+]1ccc(N(C)C)cc1 | 65
14 | CCOC(=O)/C(C#N)=C/[C-](C(=O)c1ccc(Br)cc1)[n+]1ccc(N(C)C)cc1 | 100

Now from value to compound:

Row | inhibition [%] | SMILES
15 | 88 | CCOC(=O)/C(C#N)=C/[C-](C(=O)c1ccc(OC)c(OC)c1)[n+]1ccc(OC)cc1
16 | 99 | COc1ccc(C(=O)[C-](C=C(C#N)C#N)[n+]2ccc(N(C)C)cc2)cc1
17 | 81 | CN(C)c1cc[n+]([C-](C=C(C#N)C#N)C(=O)c2ccc(F)cc2)cc1
18 | 93 | COc1cc(C(=O)[C-](C=C(C#N)C#N)[n+]2ccc(N(C)C)cc2)cc(OC)c1OC
19 | 75 | COc1ccc(C(=O)[C-](C=C(C#N)C#N)[n+]2cc(C)cc(C)c2)cc1
20 | 82 | COc1cc(C(=O)[C-](C=C(C#N)C#N)[n+]2cc(C)cc(C)c2)cc(OC)c1OC
21 | 92 | CN(C)c1cc[n+]([C-](C=C(C#N)C#N)C(=O)c2ccc3c(c2)NC(=O)CO3)cc1
22 | 77 | CN(C)c1cc[n+]([C-](C=C(C#N)C#N)C(=O)c2ccc(C#N)cc2)cc1
23 | 68 | CCOC(=O)/C(C#N)=C/[C-](C(=O)c1ccccc1)[n+]1ccc(N(C)C)cc1
24 | 88 | CN(C)c1cc[n+]([C-](C=C(C#N)C#N)C(=O)c2ccc([N+](=O)[O-])cc2)cc1
25 | 89 | Cc1ccc(C(=O)[C-](C=C(C#N)C#N)[n+]2ccc(N(C)C)cc2)cc1
26 | 83 | COc1ccc(C(=O)[C-](C=C(C#N)C#N)[n+]2ccc(OC)cc2)cc1
27 | 95 | CN(C)c1cc[n+]([C-](C=C(C#N)C#N)C(=O)c2ccc(Cl)cc2)cc1
28 | 91 | CN(C)c1cc[n+]([C-](C=C(C#N)C#N)C(=O)c2ccc(Br)cc2)cc1
29 | 77 | COc1cc[n+]([C-](C=C(C#N)C#N)C(=O)c2ccc(OC)c(OC)c2)cc1

biological target: T1, Protein farnesyltransferase; assay: Inhibition of recombinant human farnesyltransferase using Dansyl-GCVLS as substrate measured for 15 mins by fluorimetric analysis; format: protein-complex assay

Row | SMILES | IC50 [µM]
30 | CCOC(=O)/C(C#N)=C/[C-](C(=O)c1cc(OC)c(OC)c(OC)c1)[n+]1cc(C)cc(C)c1 | 43.5
31 | CCOC(=O)/C(C#N)=C/[C-](C(=O)c1ccc(C#N)cc1)[n+]1ccc(N(C)C)cc1 | 46.2
32 | CCOC(=O)/C(C#N)=C/[C-](C(=O)c1cc(OC)c(OC)c(OC)c1)[n+]1ccc(N(C)C)cc1 | 48
33 | CCOC(=O)/C(C#N)=C/[C-](C(=O)c1ccc(Cl)cc1)[n+]1ccc(N(C)C)cc1 | 31.9
34 | CCOC(=O)/C(C#N)=C/[C-](C(=O)c1ccc(OC)cc1)[n+]1ccc(N(C)C)cc1 | 62.7
35 | CCOC(=O)/C(C#N)=C/[C-](C(=O)c1ccc(F)cc1)[n+]1ccc(N(C)C)cc1 | 62.3
36 | CN(C)c1cc[n+]([C-](C=C(C#N)C#N)C(=O)c2ccccc2)cc1 | 46.2
37 | CCOC(=O)/C(C#N)=C/[C-](C(=O)c1ccc2c(c1)NC(=O)CO2)[n+]1ccc(N(C)C)cc1 | 55.2
38 | CCOC(=O)/C(C#N)=C/[C-](C(=O)c1ccc(C)cc1)[n+]1ccc(N(C)C)cc1 | 43.6
39 | CCOC(=O)/C(C#N)=C/[C-](C(=O)c1ccc(Br)cc1)[n+]1ccc(N(C)C)cc1 | 36.4

The next lines start with the values.

Row | IC50 [µM] | SMILES
40 | 20.8 | CCOC(=O)/C(C#N)=C/[C-](C(=O)c1ccc(OC)c(OC)c1)[n+]1ccc(OC)cc1
41 | 22.2 | COc1ccc(C(=O)[C-](C=C(C#N)C#N)[n+]2ccc(N(C)C)cc2)cc1
42 | 23.6 | CN(C)c1cc[n+]([C-](C=C(C#N)C#N)C(=O)c2ccc(F)cc2)cc1
43 | 15.6 | COc1cc(C(=O)[C-](C=C(C#N)C#N)[n+]2ccc(N(C)C)cc2)cc(OC)c1OC
44 | 27.4 | COc1ccc(C(=O)[C-](C=C(C#N)C#N)[n+]2cc(C)cc(C)c2)cc1
45 | 20.1 | COc1cc(C(=O)[C-](C=C(C#N)C#N)[n+]2cc(C)cc(C)c2)cc(OC)c1OC
46 | 4.67 | CN(C)c1cc[n+]([C-](C=C(C#N)C#N)C(=O)N2c3ccccc3Sc3ccccc32)cc1
47 | 25.8 | CN(C)c1cc[n+]([C-](C=C(C#N)C#N)C(=O)c2ccc3c(c2)NC(=O)CO3)cc1
48 | 23.9 | CN(C)c1cc[n+]([C-](C=C(C#N)C#N)C(=O)c2ccc(C#N)cc2)cc1
49 | 30.9 | CCOC(=O)/C(C#N)=C/[C-](C(=O)c1ccccc1)[n+]1ccc(N(C)C)cc1
50 | 28.2 | CN(C)c1cc[n+]([C-](C=C(C#N)C#N)C(=O)c2ccc([N+](=O)[O-])cc2)cc1
51 | 14.5 | Cc1ccc(C(=O)[C-](C=C(C#N)C#N)[n+]2ccc(N(C)C)cc2)cc1
52 | 27.3 | COc1ccc(C(=O)[C-](C=C(C#N)C#N)[n+]2ccc(OC)cc2)cc1
53 | 12.5 | CN(C)c1cc[n+]([C-](C=C(C#N)C#N)C(=O)c2ccc(Cl)cc2)cc1
54 | 19.7 | CN(C)c1cc[n+]([C-](C=C(C#N)C#N)C(=O)c2ccc(Br)cc2)cc1
55 | 31.4 | COc1cc[n+]([C-](C=C(C#N)C#N)C(=O)c2ccc(OC)c(OC)c2)cc1
